Each block holds one molecule with its values, some of them ahead of it.
What was measured:
[1] = rat, in vivo, 10 mg/kg; cited from earlier work
[2] = test system: CYP3A; test: Chemical inhibition study in human hepatic microsomes (ketoconazole); assay type: in vitro ADME
Procedure: The chemical inhibition study was performed by adding each of the specific inhibitors of P450 enzymes into the incubation of 25(R)-OCH3-PPD (3 or 10 µM) in 0.25 mg/ml HLM incubation systems containing an NADPH-regenerations system as described above. The chemical inhibitors and concentration were selected on the basis of previous reports and are as follows: α-naphthoflavone (10.0 µM) for CYP1A2, quercetin (10 µM) for CYP2C8, sulfaphenazole (10.0 µM) for CYP2C9, ticlopidine (5 µM) for CYP2C19, quinidine (10.0 µM) CYP2D6, diethyl dithiocarbamate (20 µM) for CYP2E1, and ketoconazole (0.1, 0.25, 0.5, 1 and 5 µM) for CYP3A.
The inhibitors were dissolved in dimethyl sulfoxide, and the final concentration of dimethyl sulfoxide in the incubation was 1% (v/v). The final incubation volume was 200 µl. Microsomes were preincubated for 5 min with a NADPH-regenerating system at 37°C, the reactions were initiated with the addition of 25(R)-OCH3-PPD and inhibitor. The reactions were terminated with an equal volume of ice-cold acetonitrile after 30 min of incubation. Parallel incubations without chemical inhibitors served as control. Samples were prepared as mentioned above to measure the concentration of parent and the metabolites by HPLC-MS/MS analysis.

[3] = molecular target: CYP3A4 (Homo sapiens, UniProt P08684); test: Inhibition of CYP3A4 catalytic activity by 25(R)-OCH3-PPD; assay type: in vitro ADME
Sequence of CYP3A4 (P08684 whole entry): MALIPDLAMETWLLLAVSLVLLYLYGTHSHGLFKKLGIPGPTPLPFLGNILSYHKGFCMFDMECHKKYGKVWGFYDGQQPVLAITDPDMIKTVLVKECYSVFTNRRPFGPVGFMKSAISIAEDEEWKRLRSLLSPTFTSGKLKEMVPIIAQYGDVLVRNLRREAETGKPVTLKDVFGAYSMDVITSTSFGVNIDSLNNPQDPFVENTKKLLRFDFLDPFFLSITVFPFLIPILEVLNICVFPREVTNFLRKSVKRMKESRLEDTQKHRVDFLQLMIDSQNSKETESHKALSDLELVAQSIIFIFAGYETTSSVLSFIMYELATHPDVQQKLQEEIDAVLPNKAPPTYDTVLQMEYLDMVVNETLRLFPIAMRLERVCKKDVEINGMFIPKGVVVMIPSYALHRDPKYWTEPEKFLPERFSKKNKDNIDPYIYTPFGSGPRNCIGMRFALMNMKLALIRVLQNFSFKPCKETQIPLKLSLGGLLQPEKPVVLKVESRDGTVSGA

[4] = test system: mouse liver microsomes (MLM); test: Metabolite formation in mouse liver microsomes, 60 min; assay type: in vitro ADME, CD-1 mice; conditions: MLM 1 mg/ml, 50 µM 25(R)-OCH3-PPD, NADPH
Procedure: (§1) 25(R)-OCH3-PPD were incubated in hepatic microsomes to examine the potential P450-mediated metabolism. Stock solutions of 2 mM 25(R)-OCH3-PPD was prepared in methanol. The final methanol concentration in the incubation was 2.5% (v/v). The liver microsomes were carefully thawed on ice before the experiment.
(§2) For NADPH dependent oxidative metabolism study, the reaction media contained 1 mg/ml of microsomal proteins, 10 mM G-6-P, 10 mM MgCl2, 1 U/ml G-6-PDH, 50 µM concentration of 25(R)-OCH3-PPD in potassium phosphate buffer (pH 7.4; 0.1 M) in a total volume of 200 µl. Negative control incubations containing no NADPH-regenerating system were conducted. All incubations were performed at 37°C in a shaking water bath for 60 min.
(§3) After 5 min preincubation at 37°C, the incubation reactions were initiated with the addition of microsome proteins. After undergoing incubation for 60 min, the reactions were terminated with an equal volume of ice-cold acetonitrile and 10 µl diazepam (5 µg/ml, internal standard) was added. This sample was vortex-mixed and centrifuged at 14,000 g for 5 min. […] The residue was reconstituted in 100 µl of methanol with 0.1% formic acid, centrifuged 10 min at 18000 rpm and then an aliquot 5 µL of the supernatant was directly injected onto the HPLC-MS system for quanlitative or quantitative analysis.

[5] = test system: rat liver microsomes (RLM); test: Metabolite formation in rat liver microsomes, 60 min; assay type: in vitro ADME, Sprague-Dawley rats; conditions: RLM 1 mg/ml, 50 µM 25(R)-OCH3-PPD, NADPH
Procedure: as §1, §2, §3

[6] = test system: dog liver microsomes (DLM); test: Metabolite formation in dog liver microsomes, 60 min; assay type: in vitro ADME, beagles; conditions: DLM 1 mg/ml, 50 µM 25(R)-OCH3-PPD, NADPH
Procedure: as §1, §2, §3

[7] = test system: human liver microsomes (HLM); test: Metabolite formation in human liver microsomes, 60 min; assay type: in vitro ADME; conditions: HLM 1 mg/ml, 50 µM 25(R)-OCH3-PPD, NADPH
Procedure: as §1, §2, §3

[8] = test system: cynomolgus monkey liver microsomes (CyLM); test: Metabolite formation in monkey liver microsomes, 60 min; assay type: in vitro ADME; conditions: CyLM 1 mg/ml, 50 µM 25(R)-OCH3-PPD, NADPH
Procedure: as §1, §2, §3

SMILES: COC(C)(C)CCC[C@](C)(O)[C@H]1CC[C@]2(C)[C@@H]1[C@H](O)C[C@@H]1[C@@]3(C)CC[C@H](O)C(C)(C)[C@@H]3CC[C@]12C [25(S)-OCH3-PPD, 20(S)-25-methoxyl-dammarane-3beta, 12beta, 20-triol]
absolute bioavailability [1]: 19.7%

SMILES: CC(=O)N1CCN(c2ccc(OCC3COC(Cn4ccnc4)(c4ccc(Cl)cc4Cl)O3)cc2)CC1 (stereo not drawn) [ketoconazole]
effect on the oxidative metabolism of 25(R)-OCH3-PPD ([2]; HLM 0.25 mg/ml, 25(R)-OCH3-PPD 10 µM, 30 min): significant inhibitory effect
inhibition of formation of M5 ([2]; HLM, ketoconazole 0.1 µM): completely
effect on formation of M1 and M6 ([2]; HLM, ketoconazole 5 µM): inhibited
effect on formation of M2, M3, M4, M5, M7 ([2]; HLM, ketoconazole 0.1-5 µM, concentration dependent): inhibited
effect on formation of M1 and M6 ([2]; HLM, ketoconazole 0.1–1 µM): activated

inhibition of the CYP3A4 catalytic activity [3]: NADPH and concentration-dependent
SMILES: COC(C)(C)CCC[C@@](C)(O)C1CC[C@]2(C)C1[C@H](O)CC1[C@@]3(C)CC[C@H](O)C(C)(C)C3CC[C@]12C (stereo partly drawn) [25(R)-OCH3-PPD, 20(R)-25-methoxyl-dammarane-3β, 12β, 20-triol]

relative amount of metabolite formed [4]: dominant metabolite
relative amount of metabolite formed [5]: dominant metabolite
relative amount of metabolite formed [6]: intermediate relative amount
relative amount of metabolite formed [7]: minor metabolite
relative amount of metabolite formed [8]: minor metabolite
SMILES: CC(C)(O)CCC[C@@](C)(O)C1CC[C@]2(C)C1[C@H](O)CC1[C@@]3(C)CC[C@H](O)C(C)(C)C3CC[C@]12C (stereo partly drawn) [Metabolite M1]
